Legend:
HIV protease = target: T1, HIV protease (Human immunodeficiency virus type 1 group M subtype B, UniProt P04585); experiment: Assay for Inhibition of Microbial Expressed HIV Protease; assay type: biochemical; conditions: protease expressed in Eschericia coli; peptide substrate Val-Ser-Gln-Asn-(betanapthyl)Ala-Pro-Ile-Val; 50 mM Na acetate, pH 5.5, 30° C., 1 hour; HPLC
T1 construct: the protease expressed in Eschericia coli; made in house; host or cells: Escherichia coli
Experimental: Inhibition studies of the reaction of the protease expressed in Eschericia coli with a peptide substrate [Val-Ser-Gln-Asn-(betanapthyl)Ala-Pro-Ile-Val, 0.5 mg/mL at the time the reaction is initiated] were in 50 mM Na acetate, pH 5.5, at 30° C. for 1 hour. Various concentrations of inhibitor in 1.0 μl DMSO were added to 25 μl of the peptide solution in water. The reaction is initiated by the addition of 15 μl of 0.33 nM protease (0.11 ng) in a solution of 0.133M Na acetate pH 5.5 and 0.1% bovine serum albumin. The reaction was quenched with 160 μl of 5% phosphoric acid. Products of the reaction were separated by HPLC (VYDAC wide pore 5 cm C-18 reverse phase, acetonitrile gradient, 0.1% phosphoric acid). The extent of inhibition of the reaction was determined from the peak heights of the products.

HIV-1 = experiment: Cell spread assay: inhibition of the spread of HIV in cell culture (MT-4 T-lymphoid cells, p24); assay type: cell-based; conditions: Human immunodeficiency virus 1, 72 h, MT-4 T-lymphoid cells infected with HIV-1 (wild-type), 24 h preincubation, then 3 additional days with inhibitor, read-out: CIC95, inhibitor concentration which reduced the spread of infection by at least 95%
Experimental: Inhibition of the spread of HIV in cell culture was measured according to Nunberg, J. H. et al., J. Virol. 65, 4887 (1991). In this assay, MT-4 T-lymphoid cells were infected with HIV-1 (wild-type, unless otherwise indicated) by using a predetermined inoculum, and cultures were incubated for 24 h. At this time, ≤1% of the cells were positive by indirect immunofluorescence. Cells were then extensively washed and distributed into 96-well culture dishes. Serial twofold dilutions of inhibitor were added to the wells, and cultures were continued for 3 additional days. At 4 days postinfection, 100% of the cells in control cultures were infected. HIV-1 p24 accumulation was directly correlated with virus spread. The cell culture inhibitory concentration was defined as the inhibitor concentration in nanomoles/liter which reduced the spread of infection by at least 95%, or CIC95. The CIC95 for compound A is 25 nM.
INHIBITION OF VIRUS SPREAD
A. Preparation of HIV-infected MT-4 cell Suspension. […]
The concentration of HIV p24 antigen is measured by an enzyme immunoassay, described as follows. Aliquots of p24 antigen to be measured are added to microwells coated with a monoclonal antibody specific for HIV core antigen. […]

For `CC(C)(C)NC(=O)C1CN(Cc2cnc3occc3c2)CCN1CC(O)CC(Cc1ccccc1)C(=O)NC1c2ccccc2CC1O` [Compound A, N-(2(R)-hydroxy-1(S)-indanyl)-2(R)-phenylmethyl-4(S)-hydroxy-5-(1-(4-(3-furo[2,3-b]pyridylmethyl)-2(S)-N'-(t-butylcarboxamido)-piperazinyl))pentaneamide], the IC50 (HIV protease) was ~0.27 nM and the IC95 (HIV-1) was 25 nM.

From patent US5646148A, “HIV protease inhibitors useful for the treatment of AIDS” (Merck & Co., Inc., priority 1995, dated 1997)
